Consider one substance from patent publication EP1363949B1, “FUNCTIONAL FRAGMENT OF THE LEPTINE RECEPTOR” (Vlaams Interuniversitair Instituut voor Biotechnologie vzw., priority 2000, dated 2007).

This assay relates to FLAG-tagged SOCS3. The assay can be described thus: phosphopeptide affinity chromatography with anti-FLAG Western blot. The following applies: lysates of HEK293T cells transfected with pMET7-fSOCS3, biotinylated peptides on streptavidin-agarose. It counts as binding, rat. An excerpt:
Monoclonal anti-FLAG antibody M2 was obtained from Sigma. Mouse recombinant leptin was purchased from R&D Systems. Peptides were synthesized using standard Fmoc-amino-acid solid phase chemistry on an Applied Biosystems Model 431A peptide synthesizer. Biotin was esterified manually following similar procedures as on the synthesizer, and added to the reaction mixture. Incorporation of phosphotyrosine was realized by using a protected Fmoc-tyrosine-phosphobenzylester (Novabiochem). After purification, mass of the peptides was confirmed by mass spectrometry. Sequences of the peptides used were biotin-QRQPSVK(p)Y985ATLVSNDK and biotin-NHREKSVC(p)Y1077LGVTSVNR.
Approximately 10^6 HEK293T cells were lysed in 150 µl 2x loading buffer. After sonication, 30 µl was loaded on a 10% polyacrylamide gel. […] Blotting efficiency was checked using PonceauS staining (Sigma). […] Peptide concentrations were determined by a colorimetric assay using alkaline hydrolysis and a ninhydrine reagent. […]
The interaction sites of SOCS3 with the leptin receptor were confirmed using a biochemical approach. FLAG-tagged SOCS3 was expressed upon transient transfection of pMET7-fSOCS3 in HEK293T cells, and was analyzed for binding to (phospho)-tyrosine containing peptides matching the two motifs within the leptin receptor. […]
A general note: Immunoblotting shows a protein as a band on a membrane.

Regarding “biotin-QRQPSVK(p)Y985ATLVSNDK [non-phosphorylated peptide]”, the “binding of SOCS3” value is “did not bind any SOCS3 protein”.
